Laboratory results from ChEMBL document CHEMBL3046805, “Synthesis and antimalarial evaluation of novel pyridine quinoline hybrids” (Med Chem Res, 2008).

What was measured:
Plasmodium falciparum [1] = test: Antiplasmodial activity against chloroquine-sensitive Plasmodium falciparum assessed as vacuolar accumulation ratio; format: functional
Plasmodium falciparum [2] = test: Antiplasmodial activity against chloroquine-sensitive Plasmodium falciparum after 30 to 34 hr by schizont maturation assay; format: functional, organism-based
[3] = Inhibition of beta-hematin polymerization after 24 hr by spectrophotometric analysis; format: physicochemical

Row | IC50 (Plasmodium falciparum [2]) | IC50 [3] | Compound | Ratio (Plasmodium falciparum [1])
1 | – | 1.89 mM | CCN(CC)CCCC(C)Nc1ccnc2cc(Cl)ccc12 (stereo not given) [CHLOROQUINE] | –
2 | 3.7 µM | 2.11 mM | Clc1ncccc1Oc1cc2c(c3ncccc13)Oc1ncccc1O2 | 1.2
3 | 6.4 µM | 2.17 mM | Brc1cc2c(c3ncccc13)Oc1ncccc1O2 | 1.03

Row | Compound | IC50 (Plasmodium falciparum [2]) | IC50 [3] | Ratio (Plasmodium falciparum [1])
4 | Brc1cc2c(c3ncccc13)Oc1cc(Br)c3cccnc3c1O2 | 7.4 µM | 2.78 mM | 1.01
